This passage reports inhibition in vivo, inhibition and IC50 results from patent US5025036A, “Catechol carboxylic acids” (Hoffmann-La Roche Inc., priority 1989, dated 1991).

SMILES strings stand for the structures. Counter-ions that a name gives are not always drawn.

The test system of assay [1] is Carrageenan pleurisy. Briefly: Carrageenan Pleurisy Test (In Vivo). Also on record: species or system male Lewis rats. Particulars: Rattus norvegicus, po; at 100 mg/kg p.o; read-out: Rat Carrageenan Pleurisy % Inhib. of Exudate Volume. The method, then: The animals utilized in these studies were male Lewis rats (Charles River Breeding Laboratories) weighing between 230-250 g. […] At 5 or 24 hours after CG injection, the rats were killed by decapitation, exsanguinated, and the pleural cavity exposed by cutting the ribs on both sides of the sternum. The exudate fluid was removed from the pleural cavity with disposable plastic pipettes and its volume quantitated. The pleural cavity was then washed once with phosphate buffered saline containing fetal bovine serum (1:1) and the washings combined with the exudate. The total number of cells in the pleural cavity was quantitated using a Coulter Counter (Model ZM) adjusted to exclude any contaminating RBC. (Published in "Plant Flavonoids in Biology & Medicine: Biochemical, Pharmacological and Structure-Activity Relationships" p. 231-242 (1986) Alan R. Liss, Inc.)

The target of assay [2] is T1, Δ^5 -lipoxygenase from rat basophilic leukemia (RBL-1) cells (Rattus norvegicus, UniProt P12527).
T1 construct: The isolated cytosolic fraction was stored in liquid N2 for up to 8 weeks without loss of 5-LO enzyme activity; endogenous in cells; host or cells: RBL-1 cells (ATCC CRL 1378), 113,000×g supernatant (cytosol)
T1 sequence (P12527 1-673): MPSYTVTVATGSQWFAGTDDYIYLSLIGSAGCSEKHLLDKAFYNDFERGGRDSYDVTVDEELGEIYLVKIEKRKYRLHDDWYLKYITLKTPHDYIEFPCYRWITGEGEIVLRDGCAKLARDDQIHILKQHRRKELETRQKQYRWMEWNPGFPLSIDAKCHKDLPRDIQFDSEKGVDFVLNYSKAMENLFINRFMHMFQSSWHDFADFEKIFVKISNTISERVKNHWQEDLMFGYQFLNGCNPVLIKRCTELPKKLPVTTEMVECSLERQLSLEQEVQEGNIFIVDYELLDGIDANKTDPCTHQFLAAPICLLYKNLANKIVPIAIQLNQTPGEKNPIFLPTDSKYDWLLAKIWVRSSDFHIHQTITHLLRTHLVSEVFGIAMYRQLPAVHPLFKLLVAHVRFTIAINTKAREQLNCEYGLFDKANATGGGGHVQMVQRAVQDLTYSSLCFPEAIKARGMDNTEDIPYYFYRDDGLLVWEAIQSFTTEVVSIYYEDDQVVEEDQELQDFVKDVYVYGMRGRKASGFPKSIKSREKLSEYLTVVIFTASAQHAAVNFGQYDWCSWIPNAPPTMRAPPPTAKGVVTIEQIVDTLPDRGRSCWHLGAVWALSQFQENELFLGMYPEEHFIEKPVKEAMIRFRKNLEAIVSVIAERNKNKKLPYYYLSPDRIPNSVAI
In words: In vitro test for Δ^5-lipoxygenase inhibitors (5-HETE radioimmunoassay). The assay is classed as biochemical. Particulars: for IC50: RBL-1 5-LO, 5-HETE formation, read-out: Inhib. of Δ^5 Lipoxygenase IC50. Here is the method:
RBL-1 cells (CRL 1378) were obtained from the American Type Culture Collection, Rockville, MD. DMEM and glutamine were purchased from Flow Labs, McLean, Va. FBS (Gibco, Grand Island, N.Y.) was heat-inactivated for 1 hour at 56° C. Reagents for protein determinations were obtained from Biorad, Rockville Center, N.Y. Arachidonic acid (approx. 99%), ATP (disodium salt), BHT, dextran (clinical grade), tetrasodium EDTA, gelatin, gentamycin sulfate solution, reduced glutathione, 1 M HEPES buffer, indomethacin, NaCl, reduced NADPH, Trizma 7.2, and Trizma 8.5 were purchased from Sigma Chemical, St. Louis, Mo. CaCL2 dihydrate, Norit A charcoal, and citric acid monohydrate were obtained from Fisher Scientific, Pittsburgh, Pa. […] A synthetic 5-HETE standard was supplied by Dr. M. Rosenberger, Dept. of Medicinal Chemistry, Hoffmann La-Roche, Nutley, N.J.; [see Corey, E. J., and Hashimoto, S. (1981) Tet. […] Approximately 7-9 days after thawing, RBL-1 cells growing in log phase were seeded at a density of 7500 viable cells/ml in a closed 89-liter spinner flask. […] RBL-1 cells were harvested by centrifugation at 4° C. at 1500×g for 10 minutes and were washed 3 times with ice cold 0.05M tris-hCl, pH 7.2, tetrasodium EDTA (buffer 1). The cells were washed last in 0.05M Tris-HCl containing 14 μM indomethacin, 1 mM glutathione, 1.5 mM NaCl, and 1 mM tetrasodium EDTA (buffer 2), resuspended at a density of 5×108'/ml approximately 10 ml) and disrupted manually at 4° C. using a 40 ml Dounce (type A pestle) homogenizer. After 5 minutes of homogenization, 95% cell lysis was confirmed by phase contrast microscopy. The broken cells were diluted 1:2 with buffer 2 and centrifuged at 12,380×g for 10 minutes at 4° C. to pellet cellular debris and granules. The 12,380×g supernatant was centrifuged at 113,000×g for 60 minutes to pellet microsomes. The high-speed supernatant (5.9±0.48 mg/ml protein) was frozen immediately in 1 ml aliquots using a dry ice/acetone bath. The isolated cytosolic fraction was stored in liquid N2 for up to 8 weeks without loss of 5-LO enzyme activity. Compounds were dissolved at 25 mM concentration in DMSO, then diluted to final concentrations using 95% ethanol. For a typical enzyme assay, the partially purified 5-LO preparation was preincubated with drug or vehicle for 10 minutes at 30° C. The assay tubes were then transferred at a 37° C. water bath where they received arachidonic acid (8.25 μM final concentration) to initiate 5-LO activity. […] The samples were immediately cooled on ice and neutralized by dilution with 0.05M Tris-HCl, pH 8.5, which contained 25 mg/1 BHT. A boiled cytosol control was placed at the end of each assay to emasure non-enzymatic oxidation of arachidonic acid. […] Under the assay conditions described, the 5-LO catalyzed the conversion of arachidonic acid to 5-HPETE which, as a consequence of peroxidase activity, was reduced to 5-HETE. A specific radioimmunoassay was employed to quantitate the amount (pmoles) of 5-HETE formed during the enzyme reaction. To prepare the immunogen, Dr. M. Rosenberger (Dept. of Medicinal Chemistry) converted the racemic 5-HETE lactone (Corey, E. J., and Hashimoto, S. (1981) Tet. Letters, 22, 299-302) to its hydrazine derivative. The hydrazide was conjugated to thiolated Keyhole Limpet Hemocyanin (Young, […]., and Rokach, J. (1982) Prostaglandins 23, 603-613) using N-ethyl-maleimide as previously described for LTB4 by (Young, R., N, Zomboni, R. and Rokach, J. 91983) Prostaglandins, 26, 605-613). New Zealand White rabbits received multiple intradermal injections on their backs with […] conjugate emulsified in complete Freund's adjuvant. A schedule of injections reported by Salmon (Salmon, J. A. (1978) Prostaglandins, 15, 383-397) was followed. After the monthly i.p. booster injections, blood was obtained from the marginal ear vein 5-7 days later and assessed for antibody titer. […]

For assay [3], the system named is ear edema. In words: Mouse Ear Edema Test (In Vivo), arachidonic acid. More on the design: species or system CD-1 male mice. The settings on record: topical, 1 h, at 1 mg topically. From the text:
Invest. Dermatol. 80:48 (1983) and Hames, Opas and Bonney, "Arachidonic Acid Metabolites in Mouse Ear Edema" Advances in Inflammation Research, 11:57 (1986). […] CD-1 male mice weighing 15 to 25 g were employed, and they were designated as follows: (1) Control Group, in which no arachidonic acid or test compound was to be applied, (2) Arachidonic Acid-Treated Group, in which no test compound was to be applied, and (3) Treated Group, in which the test compound was to be applied first, followed by the application of arachidonic acid. In the case of the Group (3) animals, the test compound, dissolved in acetone, was applied to the dorsal surface of the right ear of the mouse with a 25-microliter pipettor, with the dose of the test compound being varied. After 0.5 hours in some cases and 4 hours in others, the arachidonic acid was topically applied in the same manner as above to the pretreated ear areas. In each case of arachidonic acid application, an amount of 0.5 mg dissolved in 25 microliters of acetone was used. After 1 hour, the mice were sacrificed by carbon dioxide inhalation. A 6 mm-diameter standard biopsy punch was used to obtain a uniform tissue sample from the ear of each mouse so treated, and the tissue samples were weighed to the nearest 0.1 mg. The percent inhibition of ear edema formation was calculated as follows: [formula]

For `CCCc1c(OCCCCCCCCc2cccc(O)c2O)ccc(C(C)=O)c1O` [1-[2-hydroxy-4-[8-(2,3-dihydroxyphenyl)octyloxy]-3-propylphenyl]ethanone], the inhibition in vivo at 100 mg/kg in assay [1] was determined as 0%. For the same compound, the inhibition at 0.1 µM in assay [2] (read-out: Inhib. of Δ^5 Lipoxygenase, % inhibition at 0.1 μM) amounted to 95%. In addition, the inhibition in vivo at 1 mg in assay [3] turned out to be 0%.

For `CCCc1c(OCCCCCCc2cccc(O)c2O)ccc(C(=O)OCCN(CC)CC)c1O` [4-[6-(2,3-Dihydroxyphenyl)hexyloxy]-2-hydroxy-3-propylbenzoic acid [2-(diethylamino)ethyl]ester hydrochloride], the inhibition in vivo at 100 mg/kg in assay [1] stood at 42%. Besides, the IC50 in assay [2] stood at 670 nM. In assay [3], the inhibition in vivo at 1 mg amounted to 48%.

Regarding `CCCc1cc(C(=O)O)cc(CCC)c1OCCCCCCc1cccc(O)c1O` [4-[6-(2,3-Dihydroxyphenyl)hexyloxy]-3,5-dipropylbenzoic acid], in assay [2], the IC50 is 460 nM. Moreover, the inhibition in vivo at 1 mg in assay [3] is 59%.

On to `CCCc1cc(C(=O)O)ccc1OCCCCCCc1cccc(O)c1O` [4-[6-(2,3-Dihydroxyphenyl)hexyloxy]-3-propylbenzoic acid], for which the inhibition in vivo at 100 mg/kg in assay [1] worked out at 0%. Besides, the IC50 in assay [2] was found to be 20 nM. In assay [3], this compound returned an inhibition in vivo at 1 mg of 52%.

The inhibition is the share of the control response that was lost under treatment. In general, IC50 refers to the midpoint of a concentration-inhibition curve.
